“And” between values parts separate entries of the source, which are not always exact repeats. Identical values can stand only once.
Key:
[1] = tested on: HCT-8 cell monolayers; test: Apical-to-basal transport across HCT-8 cell monolayers (Transwell)
From the text: TRANSEPITHELIAL TRANSPORT AND METABOLISM OF BORONATED DIPEPTIDES ACROSS CACO-2 AND HCT-8 CELL MONOLAYERS Amy L. Elkins,John G. Eley,3, Merrill C. […] This study examined the effect of boronation on the transepithelial transport and metabolism of three glycine-phenylalanine dipeptides in Caco-2 and HCT-8 cell monolayers. […] Oral delivery of proteins and peptides as therapeutic agents is problematic due to their low bioavailability. This is mainly due to both their poor permeability across cellular barriers and to enzymatic degradation that occurs in the gut lumen, brush border, and enterocyte cytoplasm (2). […] Such as a substitution may also have the potential to alter the in vivo bioavailability of dipeptides. […] This study was undertaken to determine the effect of boronation on the transepithelial transport and metabolism of three glycine-phenylalanine dipeptides. […] Caco-2 cells are human colon adenocarcinoma cells first isolated from a primary colonic tumor (4). The cell line undergoes spontaneous enterortic differentiation in culture after reaching cotfflucnce, and morphologically resembles small intestinal epitheliun after three xveeks in culture (5). These morphological characteristics include the development of a brush border region expressing microvilli, occluding junctions, dome formations, and the formation of tight junctions leading to cell polarity. […] The cell line expresses a dipeptide carrier transport system in both the apical and basal membranes (9-10). […] HCT-8 cells are human adenocarcinoma cells from the ileocecal region; as such, these cells may give a truer reflection of gut absorption compared to Caco-2 cells which are derived from the colonic region. The cells produce a polarized differentiated monolayer consisting of enterocyte-like columnar cells that are interconnected by mature tightjunctions and desmosomes and exposed microvilla (11). The structural and functional integrity of the tight junctions of cells grown on polyester filter cups (Falcon, BD) and membrane filter inserts (Transwell(R), Costar) have been confirmed by transmission electron microscopy, transepithelial electrical resistance measurements, and transport of impermeant markers such as mannitol and polyethylene glycol (11, 12). […] Compound//was donated by Boron Biologicals, Inc., Raleigh, NC. Compound 111 was synthesized as follows: L-phenylalanine methyl ester hydrochloride (2.09 g, 9.7 mmol) and dimethylglycine (1 g, 9.7 retool) xvere suspended in 30 ml dry tetrahydrofuran with 10 mmol of triethylamine, dicyclohexyl-carbodiinfide and hydrox3'benzotriazole. The reaction was stirred at room temperature for 48 hours under nitrogen and the solvent was removed under reduced pressure. The product was purified on silica gel, two void volumes of hexane, two void volumes hexane/ethanol (8'1), and then hexane/ethanol (5:1). […] For the transport studies, cells were diluted with growth medium to give a total of […] cells/cm in 1.5 mls. The 1.5 ntis was placed in the apical compartment of a Transwcll(R) (Costar). The Transxvell(R) system is a 6-well plate with each well having an apical compartment capacity of 1.5 ntis, a basal compartment capacity of 2.5 ntis, and a 4.71 cm polycarbonate microporous (0.45 gin) membrane separating the two compartments. Cell monolayers in the Transwell(R) were allowed to grow for 21 days while the medium was replaced every 3 days. […]

[2] = tested on: Caco-2 cell monolayers; test: Basal-to-apical transport across Caco-2 cell monolayers; conditions: basal-to-apical
From the text: TRANSEPITHELIAL TRANSPORT AND METABOLISM OF BORONATED DIPEPTIDES ACROSS CACO-2 AND HCT-8 CELL MONOLAYERS Amy L. Elkins,John G. Eley,3, Merrill C. […] This study examined the effect of boronation on the transepithelial transport and metabolism of three glycine-phenylalanine dipeptides in Caco-2 and HCT-8 cell monolayers. […] Oral delivery of proteins and peptides as therapeutic agents is problematic due to their low bioavailability. This is mainly due to both their poor permeability across cellular barriers and to enzymatic degradation that occurs in the gut lumen, brush border, and enterocyte cytoplasm (2). […] Such as a substitution may also have the potential to alter the in vivo bioavailability of dipeptides. […] This study was undertaken to determine the effect of boronation on the transepithelial transport and metabolism of three glycine-phenylalanine dipeptides. […] Caco-2 cells are human colon adenocarcinoma cells first isolated from a primary colonic tumor (4). The cell line undergoes spontaneous enterortic differentiation in culture after reaching cotfflucnce, and morphologically resembles small intestinal epitheliun after three xveeks in culture (5). These morphological characteristics include the development of a brush border region expressing microvilli, occluding junctions, dome formations, and the formation of tight junctions leading to cell polarity. […]

[3] = tested on: various murine and human tissue cultured cancer cells; conditions: cited from earlier work
[4] = 0.01N NaOH, 37C, 6 hours
[5] = Stability in HBSS/HEPES buffer and apical/basal media without the Transwell system; type: physicochemical; conditions: HBSS/HEPES buffer pH 7.4, 37C, or apical and basal media
[6] = tested on: Caco-2 cell monolayers; test: Apical-to-basal transport and metabolism across Caco-2 cell monolayers (Transwell); conditions: for % Mass Balance / % Mass Transported / % Mass in Apical Side / Pseudo first-order rate constant k + SD / Apparent permeability coefficient Pe + SD / % Ester in the basal compartment / % FA (corresponding free acid) in the basal compartment: 4 h; for % Ester in the basal compartment / % FA (corresponding free acid) in the basal compartment: Table 9, side-by-side experiment; for mode of transport across the monolayer / compound recovered after transport through Caco-2 cell monolayers: apical-to-basal; for recovery after quantitating the free acids at the conclusion of transport experiments: ester plus free acid
From the text: TRANSEPITHELIAL TRANSPORT AND METABOLISM OF BORONATED DIPEPTIDES ACROSS CACO-2 AND HCT-8 CELL MONOLAYERS Amy L. Elkins,John G. Eley,3, Merrill C. […] This study examined the effect of boronation on the transepithelial transport and metabolism of three glycine-phenylalanine dipeptides in Caco-2 and HCT-8 cell monolayers. […] Oral delivery of proteins and peptides as therapeutic agents is problematic due to their low bioavailability. This is mainly due to both their poor permeability across cellular barriers and to enzymatic degradation that occurs in the gut lumen, brush border, and enterocyte cytoplasm (2). […] Such as a substitution may also have the potential to alter the in vivo bioavailability of dipeptides. […] This study was undertaken to determine the effect of boronation on the transepithelial transport and metabolism of three glycine-phenylalanine dipeptides. […] Caco-2 cells are human colon adenocarcinoma cells first isolated from a primary colonic tumor (4). The cell line undergoes spontaneous enterortic differentiation in culture after reaching cotfflucnce, and morphologically resembles small intestinal epitheliun after three xveeks in culture (5). These morphological characteristics include the development of a brush border region expressing microvilli, occluding junctions, dome formations, and the formation of tight junctions leading to cell polarity. […] The cell line expresses a dipeptide carrier transport system in both the apical and basal membranes (9-10). […] HCT-8 cells are human adenocarcinoma cells from the ileocecal region; as such, these cells may give a truer reflection of gut absorption compared to Caco-2 cells which are derived from the colonic region. The cells produce a polarized differentiated monolayer consisting of enterocyte-like columnar cells that are interconnected by mature tightjunctions and desmosomes and exposed microvilla (11). The structural and functional integrity of the tight junctions of cells grown on polyester filter cups (Falcon, BD) and membrane filter inserts (Transwell(R), Costar) have been confirmed by transmission electron microscopy, transepithelial electrical resistance measurements, and transport of impermeant markers such as mannitol and polyethylene glycol (11, 12). […] Compound//was donated by Boron Biologicals, Inc., Raleigh, NC. Compound 111 was synthesized as follows: L-phenylalanine methyl ester hydrochloride (2.09 g, 9.7 mmol) and dimethylglycine (1 g, 9.7 retool) xvere suspended in 30 ml dry tetrahydrofuran with 10 mmol of triethylamine, dicyclohexyl-carbodiinfide and hydrox3'benzotriazole. The reaction was stirred at room temperature for 48 hours under nitrogen and the solvent was removed under reduced pressure. The product was purified on silica gel, two void volumes of hexane, two void volumes hexane/ethanol (8'1), and then hexane/ethanol (5:1). […] For the transport studies, cells were diluted with growth medium to give a total of […] cells/cm in 1.5 mls. The 1.5 ntis was placed in the apical compartment of a Transwcll(R) (Costar). The Transxvell(R) system is a 6-well plate with each well having an apical compartment capacity of 1.5 ntis, a basal compartment capacity of 2.5 ntis, and a 4.71 cm polycarbonate microporous (0.45 gin) membrane separating the two compartments. Cell monolayers in the Transwell(R) were allowed to grow for 21 days while the medium was replaced every 3 days. The cells were grown in Dulbecco's Modified Eagle Medium (D-MEM) containing L-glutamine and sodium pyruvate at 37C under 5% CO-. and saturated humidity. Additives to the medium included 10% heat- inactivated fetal bovine serum, 10 mM nonessential amino acids, 100 units of penicillin and […] of streptomycin per ml of medium. 278 A.L. Elkins, J.G. Eley, M.C.

[7] = Table 10, 37C static, 4 h, initial concentration 0.75 mM
[8] = Table 1, 37C static, initial concentration 0.75 mM
[9] = Table 1, 37C static, initial concentration 1.0 mM
[10] = Table 1, 37C static, initial concentration 2.5 mM
[11] = Table 1, 37C static, initial concentration 5.0 mM
[12] = Table 1, 37C static, initial concentration 7.5 mM
[13] = Table 2, 37C static, initial concentration 1.0 mM
[14] = Table 2, 37C static, initial concentration 5.0 mM (fourth row)
[15] = Table 2, 37C static, initial concentration 7.5 mM

## COC(=O)[C@H](Cc1ccccc1)NC(=O)[BH2-][N+](C)(C)C [Compound I, N-[(trimethylamine-boryl)-carbonyl]-L-phenylalanine methyl ester]
[1]; HCT-8 cell monolayers
  unaccounted for as the ester or the respective free acid: ~45%
[1]; [7]
  % Mass Balance: 88.2%
  % Mass Transported: 77.3%
  % Mass in Apical Side: 10.9%
[1]; Table 10, 37C static, initial concentration 0.75 mM
  Mass Transported (collected in the basal medium after 4 hours): 0.87
[2]
  recovery in basal-to-apical transport experiments: 100%
[3]
  cytotoxicity: potent
[4]
  ester degradation to the free acid: all ofthe ester was degraded
[5]
  % of the original ester at 25 hours: 96%
[6]; [8]
  % Mass Balance: 63.8%
  % Mass Transported: 62.2%
  % Mass in Apical Side: 1.6%
[6]; [9]
  % Mass Balance: 67.8%
  % Mass Transported: 60.0%
  % Mass in Apical Side: 7.8%
  Mass Transported (collected in the basal medium after 4 hours): 0.90
[6]; [10]
  % Mass Balance: 73.0%
  % Mass Transported: 64.0%
  % Mass in Apical Side: 9.0%
  Mass Transported (collected in the basal medium after 4 hours): 2.4
[6]; [11]
  % Mass Balance: 71.0%
  % Mass Transported: 62.7%
  % Mass in Apical Side: 8.3%
  Mass Transported (collected in the basal medium after 4 hours): 4.7
[6]; [12]
  % Mass Balance: 74.6%
  % Mass Transported: 66.7%
  Mass Transported (collected in the basal medium after 4 hours): 7.5
[6]; Table 2, 37C static, initial concentration 0.75 mM
  Pseudo first-order rate constant k + SD: 1.76 + 0.06 x 104/sec
[6]; [13]
  Apparent permeability coefficient Pe + SD: 35.1 ×10⁻⁶ cm/s
  Pseudo first-order rate constant k + SD: 1.70 + 0.08 x 104/sec
[6]; Table 2, 37C static, initial concentration 2.5 mM
  Apparent permeability coefficient Pe + SD: 37.5 ×10⁻⁶ cm/s
[6]; [14]
  Apparent permeability coefficient Pe + SD: 32 ×10⁻⁶ cm/s
  Pseudo first-order rate constant k + SD: 1.35 + 0.17 x 104/sec
[6]; [15]
  Apparent permeability coefficient Pe + SD: 37.5 ×10⁻⁶ cm/s
  Pseudo first-order rate constant k + SD: 1.56 + 0.11 x 104/sec
[6]; Table 3, 2.5 mM, 4C Rocking
  % Mass Balance: 89.3%
  % Mass Transported: 48.6%
  % Mass in Apical Side: 40.7%
[6]; Table 3, 2.5 mM, 37C Rocking
  % Mass in Apical Side: 2%
[6]; Table 3, 2.5 mM, 37C Static
  % Mass Balance: 73.1%
  % Mass Transported: 56.9%
[6]; Table 3, initial concentration 2.5 mM, 4C Rocking
  Mass Transported (collected in the basal medium after 4 hours): 1.8
[6]; Table 3, initial concentration 2.5 mM, 37C Rocking
  Mass Transported (collected in the basal medium after 4 hours): 3.0
[6]; Table 3, initial concentration 2.5 mM, 37C Static
  Mass Transported (collected in the basal medium after 4 hours): 2.1
[6]; Table 4, 2.5 mM, 37C Rocking
  Pseudo first-order rate constant k + SD: 3.54 + 0.06 x 104/sec
[6]; Table 4, 2.5 mM, 37C Static
  Pseudo first-order rate constant k + SD: 1.03 + 0.06 x 104/sec
[6]; 4C Rocking
  % Ester in the basal compartment: 74.0%
  % FA (corresponding free acid) in the basal compartment: none
[6]; 4C Static
  % Ester in the basal compartment: 61.8%
  % FA (corresponding free acid) in the basal compartment: none
[6]; 37C Static
  % Ester in the basal compartment: 44.4% and 44%
  % FA (corresponding free acid) in the basal compartment: 44.4% and 44%
[6]
  mode of transport across the monolayer: passive diffusion
  recovery after quantitating the free acids at the conclusion of transport experiments: 100%
[6]; 4 hours
  compound recovered after transport through Caco-2 cell monolayers: Approximately 70%
[6]; side-by-side experiment, 37C static, 4 hours
  ester remaining in the apical compartment: none

## COC(=O)[C@H](Cc1ccccc1)NC(=O)[BH2-][NH+](C)C [Compound II, N-[(dimethylamine-boryl)-carbonyl]-L-phenylalanine methyl ester]
[5]
  % of the original ester at 25 hours: 90%
[6]; Table 5, 4C Rocking
  % Mass Balance: 81.8%
  % Mass Transported: 37.3%
  % Mass in Apical Side: 44.5%
[6]; Table 5, 4C Static
  % Mass Balance: 79.9%
  % Mass Transported: 39.3%
  % Mass in Apical Side: 40.6%
[6]; Table 5, 37C Static
  % Mass Balance: 57.7%
  % Mass Transported: 52.7%
  % Mass in Apical Side: 5.0%
[6]; Table 5, initial concentration figure not printed (mM), 4C Rocking
  Mass Transported (collected in the basal medium after 4 hours): 0.56
[6]; Table 5, initial concentration figure not printed (mM), 4C Static
  Mass Transported (collected in the basal medium after 4 hours): 0.59
[6]; Table 5, initial concentration figure not printed (mM), 37C Static
  Mass Transported (collected in the basal medium after 4 hours): 0.79
[6]; Table 6, 37C Rocking
  Apparent permeability coefficient Pe + SD: 48 ×10⁻⁶ cm/s
  Pseudo first-order rate constant k + SD: 2.8 + 0.22 x 104/sec
[6]; 4C Rocking
  % Ester in the basal compartment: 55.5%
  % FA (corresponding free acid) in the basal compartment: inhibited
[6]; 4C Static
  % Ester in the basal compartment: 59.4%
  % FA (corresponding free acid) in the basal compartment: inhibited
[6]; 37C Static
  % Ester in the basal compartment: 48.6% and 49%
  % FA (corresponding free acid) in the basal compartment: 51.5% and 52%
[6]
  mode of transport across the monolayer: passive diffusion
  recovery after quantitating the free acids at the conclusion of transport experiments: 100%
[6]; 4 hours
  compound recovered after transport through Caco-2 cell monolayers: 58%

— article PMC2365028, “Transepithelial Transport and Metabolism of Boronated Dipeptides Across Caco-2 and HCT-8 Cell Monolayers” (Metal-Based Drugs, 1996)
